# In patent publication US20240261359A1, “PHARMACEUTICAL COMPOSITION FOR USE PREVENTING AND CURING RESPIRATORY DISEASES IN WINTER” (Tianjin University of Traditional Chinese Medicine, priority 2020, published 2024):
# Columns and labels:
# ARE = ARE luciferase reporter gene activity in transfected 293T cells; format: cell-based; conditions: tBHQ 10 μM, 6 h; relative luciferase activity L/S; x ± SD, n = 18; control 0.76
# Procedure: (§1) The 293T cells in the logarithmic growth phase were taken and inoculated into a 96-well cell culture plate at a density of 2×10^5 cell/mL, and after growth along the walls to 70-80%, a PEI (1 mg/ml) transfecting agent was used to simultaneously transfect them with ARE and NF-κB luciferase reporter plasmids pGL4.37, pGL4.32 (100 ng/well) and a renilla luciferase reported plasmid pGL4.75 (10 ng/well), and they were cultured for 24 h.
# (§2) After 24-h culture, the cells transfected with the ARE luciferase reporter plasmid pGL4.37 are added with tBHQ (10 μM) and safety concentrations of the sample solutions of the individual inventive pharmaceutical composition groups, and by setting a control group, and they were cultured 6 h; the cells transfected with NF-kB luciferase reporter plasmid pGL4.32 were respectively added with dexamethasone (10 μM) diluted by a TNF-α complete culture medium, and safety concentrations of the sample solutions of the individual inventive pharmaceutical composition groups, and by setting a control group, and a model group, and they were cultured for 6 h. The supernatant was discarded, and the cells were rinsed with PBS. After splitting, they were detected by using a Dual-Luciferase detection system. Each set of experiments were configured with 6 compound wells, with 3 repetitions. […]
# [1] = test system: rats suffered from acute pharyngitis caused by Staphylococcus aureus; experiment: Scoring of pharyngeal lesions, rat acute pharyngitis model; format: in vivo, SD rats; parameters: key to Pharyngeal inflammatory response grade of most animals: −: pharyngeal tissues were in light red color, and they had moist and glossy surfaces, and no secreted substances, no congestion, no swelling and other pathological phenomena; +: the mucosa in the pharynx had poor gloss, and there were a small amount of secreted substances, and slight congestions and swelling; ++: the mucosa in the pharynx was in a dark red color and poor in the gloss, and secreted substances exist therein, accompanying by moderate congestions and swelling and other phenomena; +++: the mucosa in the pharynx exhibited a dark red color, increased secretion of mucus, and evident congestion and swelling
# [2] = test system: rats suffered from acute pharyngitis caused by Staphylococcus aureus; experiment: Pathological morphology of pharyngeal tissues (HE staining), rat acute pharyngitis model; format: in vivo, SD rats; conditions: HE sections, FIG. 2A-2D
# Procedure: Material taking: rats were anesthetized and pharyngeal tissues were taken and fixed in 4% paraformaldehyde for more than 24 h. The tissues were taken from the fixing solution and in a fume hood, the tissues at the target region were trimmed with a surgical knife. The trimmed tissues and the corresponding tags were placed in a dehydration box.
# Dehydration: the dehydration was conducted by placing the dehydration box in a hanging basket, and in a dehydration machine, the dehydration was conducted with alcohols with gradient concentrations in order. 75% alcohol 1 h-85% alcohol 1 h-90% alcohol 1 h-95% alcohol 1 h-anhydrous ethanol I 30 min-anhydrous ethanol II 30 min-alcohol benzene 5-10 min-xylene I 5-10 min-xylene II 5-10 min-wax I 1 h-wax II 1 h-wax III 1 h.
# Embedding: the tissues immersed with wax were embedded in an embedding machine. The molten wax was placed in an embedding frame first, and before it was solidified, the tissues were taken from the dehydration box and placed in the embedding frame according to requirements on embedded faces and corresponding tags were attached. They were cooled on a freezing table at −20° C., and after wax solidification, the wax block was taken from the embedding frame and trimmed.
# Slicing: the trimmed wax block was sliced on a paraffin slicing machine, in a thickness of 4 μm. […]
# [3] = test system: rats suffered from acute pharyngitis caused by Staphylococcus aureus; experiment: Inflammatory factors in rat serum by ELISA, rat acute pharyngitis model; format: in vivo, SD rats; conditions: composition 3.5 g/kg, amoxicillin 0.36 g/kg, x ± s, n = 7
# Procedure: Rates were anesthetized. Blood was taken from abdominal aorta and injected into a procoagulant tube, standing for 45 min at room temperature, and it was centrifuged at 3500 rpm for 10 min. The supernatant was suction taken into a sterile EP tube and stored at −80° C. Before measurements, the samples were re-thawed at room temperature, and the IL-1β, IL-6 and TNF-α levels in serum were measured by enzyme-linked immunosorbent assay (ELISA). The operations were carried out according to the instruction of the kit, and each index was detected by an enzyme-labelled meter at the absorbance 450 nm.
# [4] = test system: rats suffered from acute pharyngitis caused by Staphylococcus aureus; experiment: Peripheral white blood cell count and classification, rat acute pharyngitis model; format: in vivo, SD rats; conditions: composition 3.5 g/kg, amoxicillin 0.36 g/kg, x ± s, n = 7
# Excerpt: Before each group of animals were scarified, blood was taken by cutting tails and smeared on plates to conduct routine blood examinations about number of white blood cells, lymphocyte percentages and neutrophils percentages.
# [5] = test system: rats suffered from acute pharyngitis caused by Staphylococcus aureus; experiment: Appearance behavior scoring and thymus weight, rat acute pharyngitis model caused by Staphylococcus aureus; format: in vivo, SD rats; conditions: ig, composition 3.5 g/kg, amoxicillin 0.36 g/kg, x ± s, n = 7
# Procedure: Formulations of medicinal solutions: before the test, distilled water was used to formulate a medicinal solution with a concentration of 0.35 g/ml, which was intragastrically administrated in 1 ml/100 g body weight/time, 2 times/day, and on 7th day after pre-administrations, modelling was started and the intragastric administration was continued for 5 days.
# On 1st day, at 1 h after Staphylococcus aureus infection, the positive medicinal group was intragastrically administrated at a dose of 0.36 g/kg (equivalently equal to the clinical dose of a human), 1 time/day for 5 consecutive days.
# With scoring standard (from Standards for Preparation of Animal Models Suffered from Acute Pharyngitis, enacted by Traditional Chinese medicine Experimental Pharmacology Professional Committee of Traditional Chinese Medicine Institute, Traditional Chinese Medicine Pharmacology and Clinics 2018; 34 (1)), according to weights, mobility, fur color and gloss of rats, they were classified into 4 grades, as shown in the following Table 4.
# NF-κB = format: cell-based; conditions: dexamethasone 10 μM with TNF-α, 6 h; L/S; x ± SD, n = 18; model 4641.34, control 17.46
# Procedure: as §1, §2
# [6] = of 7 rats, composition 3.5 g/kg, amoxicillin 0.36 g/kg
smiles,measurement,setting,value
"CC(C)(C)c1cc(O)ccc1O [tBHQ, Tertiary butylhydroquinone]",ARE luciferase activity of 293T cells,ARE,3.55
CC1(C)S[C@@H]2[C@H](NC(=O)[C@H](N)c3ccc(O)cc3)C(=O)N2[C@H]1C(=O)O [Amoxicillin],Pharyngeal lesions: number of animals in grade +,[1]; [6],6
same,Pharyngeal lesions: number of animals in grade ++,[1]; [6],1
same,Pharyngeal lesions: number of animals in grade +++,[1]; [6],0
same,Pharyngeal lesions: number of animals in grade −,[1]; [6],0
same,Pharyngeal inflammatory response grade of most animals,[1]; summary of Table 6,+
same,"Pathological morphology of pharyngeal tissues (inflammatory cell infiltration, mucosa recovery)",[2],very similar to those in the inventive pharmaceutical composition group
same,IL-1β (pg/mL) in peripheral blood,[3],254.04 ± 59.15 pg/mL
same,IL-6 (pg/mL) in peripheral blood,[3],28.21 ± 8.67 pg/mL
same,TNF-α (pg/mL) in peripheral blood,[3],145.14 ± 30.98 pg/mL
same,"L (%), percentages of lymphocytes",[4],76.37 ± 7.42 %
same,"N (%), percentages of neutrophils",[4],19.5 ± 6.77 %
same,"WBC (×10^9/L), white cells",[4],8.17 ± 30^ ×10^9/L
same,Thymus gland,[5],0.26 ± 0.11 g
same,Fur gloss (appearance behavior score),[5]; index grade 0-3 (Table 4),1.14 ± 0.38
same,Mobility (appearance behavior score),[5]; index grade 0-3 (Table 4),1.43 ± 0.53
"C[C@@H]1C[C@H]2[C@@H]3CCC4=CC(=O)C=C[C@]4(C)[C@@]3(F)[C@@H](O)C[C@]2(C)[C@@]1(O)C(=O)CO [Dex, Dexamethasone]",NF-κB luciferase activity of 293T cells,NF-κB,968.61
